Source: patent US20050272677A1, “Delivery of a substance to a pre-determined site” (priority 2002, published 2005)

Assays:
[1] = Gelation experiment (gel formation in solvents); type: physicochemical; design: key to Gelation properties: g = gel; i = insoluble; p = precipitate; sol = soluble
Method: To obtain a gel or to thicken the solvent, the compound is mixed with the required solvent or a mixture of solvents in an amount between 0.01 and 50 wt. %, based on the weight of the composition. Typically, the dissolution of the components will be performed by heating (in some cases it may be helpful to homogenize the components, e.g., vortex) them together at temperatures of 20° C. to 200° C., preferably 50° C. to 150° C. Cooling these hot solutions to a preferred temperature in the range of −20° C. to 100° C., preferably 4° C. to 100° C. affords the gel or thickened solvent. […] In an alternative embodiment, the gelling agent is first dissolved in a polar or apolar solvent followed by the addition of another solvent or solvent mixture, thereby causing gelation to take place.
It will be understood that the use of the present gelling agents or thickeners to prepare a gel or to thicken a composition is also encompassed by the invention. As is well-known, gelling behavior of compounds or compositions is highly unpredictable. […] Preferably, the gelling phenomenon is thermoreversible.
In a typical gelation experiment, a carefully weighed amount of the dithienylcyclopentene derivative under investigation and 1 ml of the solvent are placed in a test tube, which is sealed and then heated until the compound is dissolved. The solution is allowed to cool to room temperature. […] The gelation process could be followed by UV-vis and CD spectroscopy as depicted in FIG. 58. At low concentrations (0.35 mM), compound D is dissolved in toluene. […] Increasing the concentration to 1.8 mM causes gelation of the solvent, which is accompanied by a change of the UV-visible spectrum, together with the appearance of a strong CD signal at 323 nm (FIG. 58, panels (a) and (c)). Similar changes in the UV-vis and CD spectrum are observed upon gelation of the 1.8 mM solution of D in toluene by cooling to a temperature below the sol-gel phase transition (from here on, referred to as gel(o)). From a plot of the increase of the CD signal versus the temperature, the sol-gel phase transition temperature of gel(o) was determined to be 29° C. for a 1.8 mM solution of D in toluene.

[2] = Gelation in the presence of surfactants and polymeric micelles; type: physicochemical; design: key: G = gel; C = crystalline; G^a: ^a= not stable
[3] = test system: pB104 strain (MscL null E. coli); assay: Growth assay of MscL mutants on agar plates with or without IPTG; type: cell-based; design: key: ++++: growth equal to cells expressing wild-type MscL; growth is indicated by ++++ to −; growth is indicated by ++++ to −; growth is indicated by ++++ to −; −: an absence of growth; details: pB104 with Lac-inducible plasmid; for Growth on agar plates +IPTG: with IPTG; for Growth on agar plates −IPTG: without IPTG
Method: The constructs of the MscL-6His mutants were constructed using standard molecular biology techniques. The mutants were tested in the pB104 strain (MscL null E. coli) by a growth assay on agar plates with or without IPTG (K. Yoshimura et al., 1999, Biophys. J. 77:1960-1972).
The first phenotype (++) grows like the single G22S mutant.

In the case of `O=C(O)C(Cc1ccccc1)NC(=O)[C@H]1C[C@@H](C(=O)NC(Cc2ccccc2)C(=O)O)C[C@@H](C(=O)NC(Cc2ccccc2)C(=O)O)C1` (mixture of isomers) [10a, CHexAmPheOH (mixture of isomers)], the solvents gelated [1] is reported as “water”.

In the case of `O=C(NC(Cc1ccccc1)C(=O)O)C1CC(C(=O)NC(Cc2ccccc2)C(=O)O)CC(C(=O)NC(Cc2ccccc2)C(=O)O)C1` (single isomer, unassigned) [LLL diasteroisomer, CHexAmPheOH], the solvents gelated [1] is reported as “only gelates lower alcohols”.

In the case of `O=C(N[C@@H](Cc1ccccc1)C(=O)O)[C@H]1C[C@@H](C(=O)N[C@H](Cc2ccccc2)C(=O)O)C[C@@H](C(=O)N[C@H](Cc2ccccc2)C(=O)O)C1` [10b, CHexAmPheOH (DDL)], the solvents gelated [1] is reported as “water”.

With `CC(C)[C@H](NC(=O)[C@H]1C[C@@H](C(=O)N[C@H](C(=O)O)C(C)C)C[C@@H](C(=O)N[C@H](C(=O)O)C(C)C)C1)C(=O)O` [CHex-Am-Val-OH] the solvents gelated [1] was “water”.

In the case of `Cc1sc(C(=O)Nc2ccccc2)cc1C1=C(c2cc(C(=O)Nc3ccccc3)sc2C)CCC1` [Compound C, 1,2-Bis(5′-(anilinocarbonyl)-2′-methyl-thien-3′-yl) cyclopentene], the solvents gelated [1] is reported as 1-phenyloctane, toluene, n-butylether, benzene, tetralin.

For `Cc1sc(C(=O)N[C@H](C)C2CCCCC2)cc1C1=C(c2cc(C(=O)N[C@H](C)C3CCCCC3)sc2C)CCC1` [Compound E, 1,2-Bis(2′-methyl-5′-{(((R)-1-cyclohexylethyl)amino)carbonyl}thien-3′-yl)cyclopentene], the solvents gelated [1] was “hexadecane, cyclohexane, 1-phenyloctane, toluene, n-butylether, benzene, tetralin, 1,4-dioxane, and n-butyl acetate”.

With `O=C(OCCO)[C@H](Cc1ccccc1)NC(=O)[C@H]1C[C@@H](C(=O)N[C@@H](Cc2ccccc2)C(=O)OCCO)C[C@@H](C(=O)N[C@@H](Cc2ccccc2)C(=O)OCCO)C1` [gelator 2, CHexAmPheOCH2CH2OH] the solvents gelated [1] was “water and lower alcohols”, the Gelation properties ([2]; Nonionic (Lactose der.) < CMC) was “G^a” and the Gelation properties ([2]; Nonionic (Lactose der.) > CMC) was “G^a”. The Gelation properties ([2]; Pluronic P 105, 5 mg · ml^−1) was “g^a”, the Gelation properties ([2]; Pluronic P 105, 100 mg · ml^−1) was “g^a” and the Gelation properties ([2]; anionic (SDS) < CMC) was “G^a”. For the same molecule, the Gelation properties ([2]; anionic (SDS) > CMC) was “G^a”, the Gelation properties ([2]; cationic (CTAB) < CMC) was “G^a” and the Gelation properties ([2]; cationic (CTAB) > CMC) was “G^a”.

For `COC(=O)CC[C@H](NC(=O)[C@H]1C[C@@H](C(=O)N[C@@H](CCC(=O)OC)C(=O)OC)C[C@@H](C(=O)N[C@@H](CCC(=O)OC)C(=O)OC)C1)C(=O)OC` [gelator 7, CHexAmGluOMe], the solvents gelated [1] was “both organic solvents and water”.

With `COC(=O)C[C@H](NC(=O)[C@H]1C[C@@H](C(=O)N[C@@H](CC(=O)OC)C(=O)OC)C[C@@H](C(=O)N[C@@H](CC(=O)OC)C(=O)OC)C1)C(=O)OC` [gelator 8, CHexAmAspOMe] the solvents gelated [1] was “both organic solvents and water”.

For `CC(NC(=O)[C@H](Cc1ccccc1)NC(=O)[C@H]1C[C@@H](C(=O)N[C@@H](Cc2ccccc2)C(=O)N[C@H](C)C(=O)O)C[C@@H](C(=O)N[C@@H](Cc2ccccc2)C(=O)N[C@H](C)C(=O)O)C1)C(=O)O` (stereo partly drawn) [gelator 11, CHexAm(L)Phe(D)AlaOH], the solvents gelated [1] was “water and lower alcohols”.

In the case of `O=C(O)CCNC(=O)[C@H](Cc1ccccc1)NC(=O)[C@H]1C[C@@H](C(=O)N[C@@H](Cc2ccccc2)C(=O)NCCC(=O)O)C[C@@H](C(=O)N[C@@H](Cc2ccccc2)C(=O)NCCC(=O)O)C1` [gelator 12, cHexAm(L)Phe(β)AlaOH], the solvents gelated [1] is reported as “water”.

With `COC(=O)[C@H](Cc1c[nH]cn1)NC(=O)[C@H](CCSC)NC(=O)[C@@H]1C[C@H](C(=O)NC(CCSC)C(=O)N[C@H](Cc2c[nH]cn2)C(=O)OC)C[C@H](C(=O)N[C@@H](CCSC)C(=O)N[C@@H](Cc2c[nH]cn2)C(=O)OC)C1` (stereo partly drawn) [gelator 14, CHexAmMetHisOMe] the solvents gelated [1] was “water”.

For (1S,2S) CHex-bisurea dihexylamine [5a], the Gelation properties ([1]; 1 N NaHCO3) was “i”, the Gelation properties ([1]; 1 N NaOH) was “i” and the Gelation properties ([1]; 25% Ammonia) was “g”. The Gelation properties ([1]; buffer PH 5.7) was “sol”, the Gelation properties ([1]; buffer PH 7.2) was “p” and the Gelation properties ([1]; buffer PH 7.9) was “g”. For the same molecule, the Gelation properties ([1]; water) was “g”.

For CHex-Am-Met-Am-Borate, the solvents gelated [1] was “water and lower alcohols”.

In the case of CHex-Am-Met-Am-EtOH, the solvents gelated [1] is reported as “water”.

In the case of CHex-Am-Phe-Am-Borate, the solvents gelated [1] is reported as “water and lower alcohols”.

With CHex-Am-Ser(Bzl)-Am-Borate the solvents gelated [1] was “water and lower alcohols”.

With CHexAmPheAmGluOH [gelator 13] the solvents gelated [1] was “water”.

With racemic CHex-bisurea dihexylamine [5b] the Gelation properties ([1]; 1 N NaHCO3) was “sol”, the Gelation properties ([1]; 1 N NaOH) was “g” and the Gelation properties ([1]; 25% Ammonia) was “g”. For the same molecule, the Gelation properties ([1]; buffer PH 5.7) was “sol”, the Gelation properties ([1]; buffer PH 6.3) was “sol” and the Gelation properties ([1]; buffer PH 7.2) was “g”. For the same molecule, the Gelation properties ([1]; buffer PH 7.9) was “g” and the Gelation properties ([1]; water) was “g”.

B1: E06/G22S (protein, UniProt P0A742 1-136, looked up, variant E6H G22S)
Large-conductance …: MSIIKHFREFAMRGNVVDLAVSVIIGAAFGKIVSSLVADIIMPPLGLLIGGIDFKQFAVTLRDAQGDIPAVVMHYGVFIQNVFDFLIVAFAIFMAIKLINKLNRKKEEPAAAPAPTKEEVLLTEIRDLLKEQNNRS
With B1 the “Growth on agar plates +IPTG” value [3] was “+++” and the “Growth on agar plates −IPTG” value [3] was “++++”.

B2: F10H/G22S (protein, UniProt P0A742 1-136, looked up, variant F10H G22S)
Large-conductance …: MSIIKEFREHAMRGNVVDLAVSVIIGAAFGKIVSSLVADIIMPPLGLLIGGIDFKQFAVTLRDAQGDIPAVVMHYGVFIQNVFDFLIVAFAIFMAIKLINKLNRKKEEPAAAPAPTKEEVLLTEIRDLLKEQNNRS
For B2, the “Growth on agar plates +IPTG” value [3] was “+” and the “Growth on agar plates −IPTG” value [3] was “++++”.

B3: R13H/G22S (protein, UniProt P0A742 1-136, looked up, variant R13H G22S)
Large-conductance …: MSIIKEFREFAMHGNVVDLAVSVIIGAAFGKIVSSLVADIIMPPLGLLIGGIDFKQFAVTLRDAQGDIPAVVMHYGVFIQNVFDFLIVAFAIFMAIKLINKLNRKKEEPAAAPAPTKEEVLLTEIRDLLKEQNNRS
With B3 the “Growth on agar plates +IPTG” value [3] was “−” and the “Growth on agar plates −IPTG” value [3] was “++++”.

B4: F10H (protein, UniProt P0A742 1-136, looked up, variant F10H)
Large-conductance …: MSIIKEFREHAMRGNVVDLAVGVIIGAAFGKIVSSLVADIIMPPLGLLIGGIDFKQFAVTLRDAQGDIPAVVMHYGVFIQNVFDFLIVAFAIFMAIKLINKLNRKKEEPAAAPAPTKEEVLLTEIRDLLKEQNNRS
In the case of B4, the “Growth on agar plates +IPTG” value [3] is reported as “++++” and the “Growth on agar plates −IPTG” value [3] is reported as “++++”.

B5: A11H (protein, UniProt P0A742 1-136, looked up, variant A11H)
Large-conductance …: MSIIKEFREFHMRGNVVDLAVGVIIGAAFGKIVSSLVADIIMPPLGLLIGGIDFKQFAVTLRDAQGDIPAVVMHYGVFIQNVFDFLIVAFAIFMAIKLINKLNRKKEEPAAAPAPTKEEVLLTEIRDLLKEQNNRS
In the case of B5, the “Growth on agar plates +IPTG” value [3] is reported as “++++” and the “Growth on agar plates −IPTG” value [3] is reported as “++++”.

B6: A11H/G22S (protein, UniProt P0A742 1-136, looked up, variant A11H G22S)
Large-conductance …: MSIIKEFREFHMRGNVVDLAVSVIIGAAFGKIVSSLVADIIMPPLGLLIGGIDFKQFAVTLRDAQGDIPAVVMHYGVFIQNVFDFLIVAFAIFMAIKLINKLNRKKEEPAAAPAPTKEEVLLTEIRDLLKEQNNRS
For B6, the “Growth on agar plates +IPTG” value [3] was “++” and the “Growth on agar plates −IPTG” value [3] was “++++”.

B7: M12H (protein, UniProt P0A742 1-136, looked up, variant M12H)
Large-conductance …: MSIIKEFREFAHRGNVVDLAVGVIIGAAFGKIVSSLVADIIMPPLGLLIGGIDFKQFAVTLRDAQGDIPAVVMHYGVFIQNVFDFLIVAFAIFMAIKLINKLNRKKEEPAAAPAPTKEEVLLTEIRDLLKEQNNRS
In the case of B7, the “Growth on agar plates +IPTG” value [3] is reported as “++++” and the “Growth on agar plates −IPTG” value [3] is reported as “++++”.
